Nine molecules from ChEMBL document CHEMBL1697781, “Assessment of the health effects of chemicals in humans: II. Construction of an adverse effects database for QSAR modeling” (Curr Drug Discov Technol, 2004) can be followed below.

Details in all cases: human; call rule not given here
Data set [1] has as its system Hepatotoxicity. Nature of the data set: FDA HLAED, liver enzyme composite activity.
Data set [2] concerns Hepatotoxicity. Nature of the data set: FDA HLAED, alkaline phosphatase increase.
The test system of data set [3] is Hepatotoxicity. Nature of the data set: FDA HLAED, serum glutamic oxaloacetic transaminase (SGOT) increase.
Data set [4] concerns Hepatotoxicity. Nature of the data set: FDA HLAED, serum glutamic pyruvic transaminase (SGPT) increase.
Data set [5] concerns Hepatotoxicity. Nature of the data set: FDA HLAED, lactate dehydrogenase (LDH) increase.
Data set [6] relates to Hepatotoxicity. Nature of the data set: FDA HLAED, gamma-glutamyl transferase (GGT) increase.

SMILES strings stand for the structures.
Throughout, for GGT Increase - Index Value: reference of the scale not given here.
Throughout, for LDH Increase - Index Value: reference of the scale not given here.

Take `COc1cc2nc(N3CCN(C(=O)C4COc5ccccc5O4)CC3)nc(N)c2cc1OC` (configuration not stated) [DOXAZOSIN]: in data set [1], the “Composite Activity - Active” value is 0, the “Composite Activity - Marginal” value turned out to be 0 and the “Composite Activity - Score” value was “Inactive”. Besides, in data set [2], the “Alkaline Phosphatase Increase - Activity Score” value is on record as “Inactive”, the “Alkaline Phosphatase Increase - Index Value” was found to be 0.2 and the “Alkaline Phosphatase Increase - Number of Reports” value is given as less than 4. In data set [3], the “SGOT Increase - Activity Score” value is on record as “Inactive”, the “SGOT Increase - Index Value” is 0.3 and the “SGOT Increase - Number of Reports” value is less than 4. Also, in data set [4], the “SGPT Increase - Activity Score” value was “Inactive”, the “SGPT Increase - Index Value” stood at 0.5 and the “SGPT Increase - Number of Reports” value was “>= 4”. Besides, in data set [5], the “LDH Increase - Activity Score” value was “Inactive”, the “LDH Increase - Index Value” came out at 0.2 and the “LDH Increase - Number of Reports” value was less than 4. For the same molecule, in data set [6], the “GGT Increase - Activity Score” value is recorded as “Inactive”, the “GGT Increase - Index Value” is listed as 0.2 and the “GGT Increase - Number of Reports” value is recorded as less than 4.

With `CC[C@H]1OC(=O)[C@H](C)[C@@H](O[C@H]2C[C@@](C)(OC)[C@@H](O)[C@H](C)O2)[C@H](C)[C@@H](O[C@@H]2O[C@H](C)C[C@H](N(C)C)[C@H]2O)[C@](C)(O)C[C@@H](C)CN(C)[C@H](C)[C@@H](O)[C@]1(C)O` [AZITHROMYCIN], in data set [1], the “Composite Activity - Active” value came out at 0, the “Composite Activity - Marginal” value was 0 and the “Composite Activity - Score” value is reported as “Inactive”. Also, in data set [2], the “Alkaline Phosphatase Increase - Activity Score” value is on record as “Inactive”, the “Alkaline Phosphatase Increase - Index Value” is listed as 1 and the “Alkaline Phosphatase Increase - Number of Reports” value is given as “>= 4”. Further, in data set [3], the “SGOT Increase - Activity Score” value is on record as “Inactive”, the “SGOT Increase - Index Value” is listed as 2.9 and the “SGOT Increase - Number of Reports” value is reported as “>= 4”. Moreover, in data set [4], the “SGPT Increase - Activity Score” value is listed as “Inactive”, the “SGPT Increase - Index Value” is 2.3 and the “SGPT Increase - Number of Reports” value is “>= 4”. For the same molecule, in data set [5], the “LDH Increase - Activity Score” value is “Inactive”, the “LDH Increase - Index Value” was determined as 0.8 and the “LDH Increase - Number of Reports” value is “>= 4”. For the same molecule, in data set [6], the “GGT Increase - Activity Score” value is “Inactive”, the “GGT Increase - Index Value” worked out at 1 and the “GGT Increase - Number of Reports” value was “>= 4”.

`COC(=O)C1=C(C)NC(C)=C(C(=O)OCCN(C)Cc2ccccc2)C1c1cccc([N+](=O)[O-])c1` (configuration not stated) [NICARDIPINE]: in data set [1], the “Composite Activity - Active” value is 0, the “Composite Activity - Marginal” value was found to be 1 and the “Composite Activity - Score” value is “Inactive”. In data set [2], the “Alkaline Phosphatase Increase - Activity Score” value is given as “Inactive”, the “Alkaline Phosphatase Increase - Index Value” came out at 2 and the “Alkaline Phosphatase Increase - Number of Reports” value is given as “>= 4”. Besides, in data set [3], the “SGOT Increase - Activity Score” value is “Marginally Active”, the “SGOT Increase - Index Value” was determined as 3 and the “SGOT Increase - Number of Reports” value is reported as “>= 4”. Moreover, in data set [4], the “SGPT Increase - Activity Score” value is reported as “Inactive”, the “SGPT Increase - Index Value” is 2.5 and the “SGPT Increase - Number of Reports” value was “>= 4”. Besides, in data set [5], the “LDH Increase - Activity Score” value is “Inactive”, the “LDH Increase - Index Value” was determined as 0.9 and the “LDH Increase - Number of Reports” value is on record as “>= 4”. In addition, in data set [6], the “GGT Increase - Activity Score” value is reported as “Inactive”, the “GGT Increase - Index Value” was 0.4 and the “GGT Increase - Number of Reports” value is listed as less than 4.

Consider `COCC1=C(C(=O)OC(C)OC(=O)OC(C)C)N2C(=O)[C@@H](NC(=O)/C(=N\OC)c3csc(N)n3)[C@H]2SC1` (some centres not stated) [CEFPODOXIME PROXETIL], for which, in data set [1], the “Composite Activity - Active” value is 0, the “Composite Activity - Marginal” value came to 0 and the “Composite Activity - Score” value was “Inactive”. In addition, in data set [2], the “Alkaline Phosphatase Increase - Activity Score” value is given as “Inactive”, the “Alkaline Phosphatase Increase - Index Value” was determined as 1 and the “Alkaline Phosphatase Increase - Number of Reports” value was “>= 4”. In addition, in data set [3], the “SGOT Increase - Activity Score” value is recorded as “Inactive”, the “SGOT Increase - Index Value” was 1 and the “SGOT Increase - Number of Reports” value was “>= 4”. Besides, in data set [4], the “SGPT Increase - Activity Score” value was “Inactive”, the “SGPT Increase - Index Value” is given as 0.8 and the “SGPT Increase - Number of Reports” value was “>= 4”. Further, in data set [5], the “LDH Increase - Activity Score” value was “Inactive”, the “LDH Increase - Index Value” stood at 0.2 and the “LDH Increase - Number of Reports” value is less than 4. Further, in data set [6], the “GGT Increase - Activity Score” value is listed as “Inactive”, the “GGT Increase - Index Value” was 0.5 and the “GGT Increase - Number of Reports” value is reported as less than 4.

For `CCCCCc1cc(O)c2c(c1)OC(C)(C)[C@@H]1CCC(C)=C[C@@H]21` [DRONABINOL], in data set [1], the “Composite Activity - Active” value is 0, the “Composite Activity - Marginal” value came to 0 and the “Composite Activity - Score” value was “Inactive”. In data set [2], the “Alkaline Phosphatase Increase - Activity Score” value is “Inactive”, the “Alkaline Phosphatase Increase - Index Value” came out at 0 and the “Alkaline Phosphatase Increase - Number of Reports” value is reported as less than 4. For the same molecule, in data set [3], the “SGOT Increase - Activity Score” value is recorded as “Inactive”, the “SGOT Increase - Index Value” was determined as 0 and the “SGOT Increase - Number of Reports” value is less than 4. Further, in data set [4], the “SGPT Increase - Activity Score” value is “Inactive”, the “SGPT Increase - Index Value” amounted to 0 and the “SGPT Increase - Number of Reports” value was less than 4. Also, in data set [5], the “LDH Increase - Activity Score” value was “Inactive”, the “LDH Increase - Index Value” amounted to 0 and the “LDH Increase - Number of Reports” value is given as less than 4. In data set [6], the “GGT Increase - Activity Score” value is on record as “Inactive”, the “GGT Increase - Index Value” came to 0 and the “GGT Increase - Number of Reports” value was less than 4.

Regarding `CO/N=C(\C(=O)N[C@@H]1C(=O)N2C(C(=O)O)=C(COC(C)=O)CS[C@H]12)c1csc(N)n1` [CEFOTAXIME], in data set [1], the “Composite Activity - Active” value stood at 1, the “Composite Activity - Marginal” value turned out to be 0 and the “Composite Activity - Score” value is “Inactive”. Moreover, in data set [2], the “Alkaline Phosphatase Increase - Activity Score” value is “Inactive”, the “Alkaline Phosphatase Increase - Index Value” turned out to be 0.3 and the “Alkaline Phosphatase Increase - Number of Reports” value is listed as less than 4. In addition, in data set [3], the “SGOT Increase - Activity Score” value is “Active”, the “SGOT Increase - Index Value” amounted to 4.7 and the “SGOT Increase - Number of Reports” value was “>= 4”. In data set [4], the “SGPT Increase - Activity Score” value is “Inactive”, the “SGPT Increase - Index Value” was 2 and the “SGPT Increase - Number of Reports” value is recorded as less than 4. Moreover, in data set [5], the “LDH Increase - Activity Score” value was “Inactive”, the “LDH Increase - Index Value” was 0 and the “LDH Increase - Number of Reports” value is less than 4. In addition, in data set [6], the “GGT Increase - Activity Score” value is on record as “Inactive”, the “GGT Increase - Index Value” came out at 0 and the “GGT Increase - Number of Reports” value is listed as less than 4.

As to `Cn1c(=O)c2[nH]cnc2n(C)c1=O.O` [THEOPHYLLINE], in data set [1], the “Composite Activity - Active” value is 0, the “Composite Activity - Marginal” value was determined as 0 and the “Composite Activity - Score” value is “Inactive”. In data set [2], the “Alkaline Phosphatase Increase - Activity Score” value is given as “Inactive”, the “Alkaline Phosphatase Increase - Index Value” was 0 and the “Alkaline Phosphatase Increase - Number of Reports” value is recorded as less than 4. Further, in data set [3], the “SGOT Increase - Activity Score” value is “Inactive”, the “SGOT Increase - Index Value” turned out to be 0 and the “SGOT Increase - Number of Reports” value was less than 4. In addition, in data set [4], the “SGPT Increase - Activity Score” value is given as “Inactive”, the “SGPT Increase - Index Value” is 0 and the “SGPT Increase - Number of Reports” value is less than 4. In addition, in data set [5], the “LDH Increase - Activity Score” value is “Inactive”, the “LDH Increase - Index Value” is listed as 0 and the “LDH Increase - Number of Reports” value is recorded as less than 4. Further, in data set [6], the “GGT Increase - Activity Score” value is on record as “Inactive”, the “GGT Increase - Index Value” came to 0 and the “GGT Increase - Number of Reports” value is listed as less than 4.

As for `CC(S)C(=O)NCC(=O)O` (configuration not stated) [TIOPRONIN], in data set [1], the “Composite Activity - Active” value is listed as 0, the “Composite Activity - Marginal” value amounted to 0 and the “Composite Activity - Score” value is listed as “Inactive”. For the same molecule, in data set [2], the “Alkaline Phosphatase Increase - Activity Score” value was “Inactive”, the “Alkaline Phosphatase Increase - Index Value” amounted to 0 and the “Alkaline Phosphatase Increase - Number of Reports” value was less than 4. Besides, in data set [3], the “SGOT Increase - Activity Score” value is on record as “Inactive”, the “SGOT Increase - Index Value” was determined as 0 and the “SGOT Increase - Number of Reports” value is given as less than 4. In addition, in data set [4], the “SGPT Increase - Activity Score” value is “Inactive”, the “SGPT Increase - Index Value” worked out at 0 and the “SGPT Increase - Number of Reports” value is listed as less than 4. Besides, in data set [5], the “LDH Increase - Activity Score” value was “Inactive”, the “LDH Increase - Index Value” stood at 0 and the “LDH Increase - Number of Reports” value is recorded as less than 4. Besides, in data set [6], the “GGT Increase - Activity Score” value is given as “Inactive”, the “GGT Increase - Index Value” came out at 0 and the “GGT Increase - Number of Reports” value is reported as less than 4.

On to `O=C1C(O)=C([C@H]2CC[C@H](c3ccc(Cl)cc3)CC2)C(=O)c2ccccc21` [ATOVAQUONE], for which, in data set [1], the “Composite Activity - Active” value is recorded as 0, the “Composite Activity - Marginal” value is given as 0 and the “Composite Activity - Score” value is “Inactive”. Besides, in data set [2], the “Alkaline Phosphatase Increase - Activity Score” value is recorded as “Inactive”, the “Alkaline Phosphatase Increase - Index Value” is 0 and the “Alkaline Phosphatase Increase - Number of Reports” value was less than 4. Moreover, in data set [3], the “SGOT Increase - Activity Score” value is “Inactive”, the “SGOT Increase - Index Value” turned out to be 18.2 and the “SGOT Increase - Number of Reports” value is recorded as less than 4. For the same molecule, in data set [4], the “SGPT Increase - Activity Score” value is given as “Inactive”, the “SGPT Increase - Index Value” was found to be 18.2 and the “SGPT Increase - Number of Reports” value was less than 4. Besides, in data set [5], the “LDH Increase - Activity Score” value is recorded as “Inactive”, the “LDH Increase - Index Value” was determined as 9.1 and the “LDH Increase - Number of Reports” value was less than 4. For the same molecule, in data set [6], the “GGT Increase - Activity Score” value is “Inactive”, the “GGT Increase - Index Value” was determined as 0 and the “GGT Increase - Number of Reports” value was less than 4.
